# Patent US8674063B2, “Chimerical peptidic molecules with antiviral properties against the viruses of the Flaviviridae family” (Centro de Ingenieria Genetica y Biotecnologia, priority 2006, dated 2014)
# Assays:
# Assay type in all cases: cell-based
# [1] = Cytotoxic effect (CTE) of peptides on Vero cell monolayer; settings: Vero cell monolayer; Vero cells; read-out: CTE: peptide concentration causing damage to 50% of the monolayer
# [2] = test system: Vero cells; assay: as above; settings: at the assayed conditions
# [3] = test system: dengue 2 virus (DV2, strain S16803); assay: Plaque reduction neutralization assay (PRNT) in Vero cells, dengue 2 virus; settings: for antiviral activity (inhibition of infection by DV2, plaque reduction), in words: Vero cells
# Protocol: Vero cells were grown in 24-well plates to approximately 90% confluence, and washed twice with MEM medium without FCS. Peptide dilutions were added according to the particular assay and incubated typically during 1 h at 37° C. After the incubation, the virus was added at a multiplicity of infection of 0.1, followed by a subsequent incubation for 1 hour at 37 C. In certain experiments the peptides were added simultaneously with the virus (without preincubation) or the peptide preincubation time was modified. At the end of the second incubation, the unbound virus was eliminated by washing, and the cells were incubated for 5 days at 37 C in high density medium (MEM supplemented with non essential amino acids, 1% FCS, 1% carboxymethylcellulose) in order to propitiate the appearance of lytic plaques. The plaques were visualized by staining with 0.1% Naphtol Blue Black in 0.15 Mol/L sodium acetate. Two replicates were used per experimental point in each assay, and three independent determinations were performed. The inhibition percentage was calculated according to the expression: […]
# In order to determine the role of the cell penetrating peptide and the ER retention signal on the antiviral activity of peptides of the present invention we tested peptides No 1, 2, 3 and 4 of table 1 for inhibition of the viral infection by VD2 in Vero cells, using the assay described in the example 2.
Molecule,CC50 [1] [µM],"antiviral activity (inhibition of infection by DV2, plaque reduction), in words [3]",other results
CC[C@H](C)[C@H](NC(=O)[C@H](CO)NC(=O)[C@H](CC(C)C)NC(=O)[C@@H](NC(=O)[C@@H]1CCCN1C(=O)[C@H](CO)NC(=O)[C@H](CO)NC(=O)CNC(=O)CNC(=O)CNC(=O)[C@H](CCC(N)=O)NC(=O)[C@@H]1CCCN1C(=O)[C@@H]1CCCN1C(=O)[C@H](CCCNC(=N)N)NC(=O)[C@H](CCCNC(=N)N)NC(=O)[C@H](CCCNC(=N)N)NC(=O)[C@H](CCC(N)=O)NC(=O)[C@H](CCCNC(=N)N)NC(=O)[C@H](CCCNC(=N)N)NC(=O)[C@H](CCCCN)NC(=O)[C@H](CCCCN)NC(=O)[C@H](CCCNC(=N)N)NC(=O)CNC(=O)[C@@H](N)Cc1ccc(O)cc1)[C@@H](C)CC)C(=O)N[C@H](C(=O)N[C@H](C(=O)N[C@@H](CO)C(=O)N[C@@H](CCC(=O)O)C(=O)N[C@@H](CC(=O)O)C(=O)NCC(=O)NCC(=O)NCC(=O)N[C@@H](CCCCN)C(=O)N[C@@H](CC(=O)O)C(=O)N[C@@H](CCC(=O)O)C(=O)N[C@@H](CC(C)C)C(=O)O)[C@@H](C)CC)[C@@H](C)O [NS2Bden2 + TAT + KDEL],> 150,,
CC[C@H](C)[C@H](NC(=O)[C@H](CO)NC(=O)[C@H](CC(C)C)NC(=O)[C@@H](NC(=O)[C@@H]1CCCN1C(=O)[C@H](CO)NC(=O)[C@H](CO)NC(=O)CNC(=O)CNC(=O)CNC(=O)[C@H](CCC(N)=O)NC(=O)[C@@H]1CCCN1C(=O)[C@@H]1CCCN1C(=O)[C@H](CCCNC(=N)N)NC(=O)[C@H](CCCNC(=N)N)NC(=O)[C@H](CCCNC(=N)N)NC(=O)[C@H](CCC(N)=O)NC(=O)[C@H](CCCNC(=N)N)NC(=O)[C@H](CCCNC(=N)N)NC(=O)[C@H](CCCCN)NC(=O)[C@H](CCCCN)NC(=O)[C@H](CCCNC(=N)N)NC(=O)CNC(=O)[C@@H](N)Cc1ccc(O)cc1)[C@@H](C)CC)C(=O)N[C@H](C(=O)N[C@H](C(=O)N[C@@H](CO)C(=O)N[C@@H](CCC(=O)O)C(=O)N[C@@H](CC(=O)O)C(=O)NCC(N)=O)[C@@H](C)CC)[C@@H](C)O [NS2Bden2+TAT],150,,
CC[C@H](C)[C@H](NC(=O)[C@H](CCCCN)NC(=O)[C@@H](NC(=O)[C@H](CCC(N)=O)NC(=O)[C@@H](N)CCCNC(=N)N)[C@@H](C)CC)C(=O)N[C@@H](Cc1c[nH]c2ccccc12)C(=O)N[C@@H](Cc1ccccc1)C(=O)N[C@@H](CCC(N)=O)C(=O)N[C@@H](CC(N)=O)C(=O)N[C@@H](CCCNC(=N)N)C(=O)N[C@@H](CCCNC(=N)N)C(=O)N[C@@H](CCSC)C(=O)N[C@@H](CCCCN)C(=O)N[C@@H](Cc1c[nH]c2ccccc12)C(=O)N[C@@H](CCCCN)C(=O)N[C@@H](CCCCN)C(=O)NCC(=O)NCC(=O)NCC(=O)N[C@@H](CO)C(=O)N[C@@H](CO)C(=O)N1CCC[C@H]1C(=O)N[C@H](C(=O)N[C@@H](CC(C)C)C(=O)N[C@@H](CO)C(=O)N[C@H](C(=O)N[C@H](C(=O)N[C@H](C(=O)N[C@@H](CO)C(=O)N[C@@H](CCC(=O)O)C(=O)N[C@@H](CC(=O)O)C(=O)NCC(N)=O)[C@@H](C)CC)[C@@H](C)O)[C@@H](C)CC)[C@@H](C)CC [NS2Bden2-pP2],50,,"toxicity on the cells, in words [2]: significant cytotoxicity"
CC[C@H](C)[C@H](NC(=O)[C@H](CO)NC(=O)[C@H](CC(C)C)NC(=O)[C@@H](NC(=O)[C@@H]1CCCN1C(=O)[C@H](CO)NC(=O)[C@H](CO)NC(=O)CNC(=O)CNC(=O)CNC(=O)[C@H](CCCNC(=N)N)NC(=O)[C@H](CCCNC(=N)N)NC(=O)[C@H](CCCNC(=N)N)NC(=O)[C@H](CCCNC(=N)N)NC(=O)[C@H](CCCNC(=N)N)NC(=O)[C@H](CCCNC(=N)N)NC(=O)[C@H](CCCNC(=N)N)NC(=O)[C@H](CCCNC(=N)N)NC(=O)[C@H](CCCNC(=N)N)NC(=O)[C@@H](N)CCCNC(=N)N)[C@@H](C)CC)C(=O)N[C@H](C(=O)N[C@H](C(=O)N[C@@H](CO)C(=O)N[C@@H](CCC(=O)O)C(=O)N[C@@H](CC(=O)O)C(=O)NCC(N)=O)[C@@H](C)CC)[C@@H](C)O [NS2Bden2-pRR],> 50,,
"TAT peptide: YGRKKRRQRRRPPQ; SEQ ID NO 64; cell penetrating TAT peptide, negative control (Description of the Artificial Sequence chimerical peptide) [reference compound]",,did not show antiviral activity,"number of plaques in presence of peptide ([3]; DV2, Vero cells, FIG. 2B): increase in the number of plaques"
"segment [I] of peptide NS2Bden2+TAT (SSPILSITISEDG), lacks the cell penetrating segment",,does not inhibit,"antiviral activity (inhibition of infection by DV2, plaque reduction), in words ([3]; listed as NS3pro protease activation inhibitor segment [I]): does not show antiviral activity in vitro"
